# Patent US10273211B2, “Metabolites of N-{4-([6,7-bis(methyloxy)quinolin-4-yl]oxy}phenyl)-N′-(4-fluorophenyl)cyclopropane-1,1-dicarboxamide” (Exelixis, Inc., priority 2013, dated 2019)
# Columns and labels:
# [1] = Metabolite profiling of human plasma after [14C] cabozantinib (mass balance study); format: in vivo; conditions: single 175 mg oral dose of cabozantinib (L-malate salt) with [14C] cabozantinib, HPLC Method 1
# Protocol: (§1) The objective of this study was to profile and identify metabolites of cabozantinib in human plasma, urine, and feces.
# (§2) The plasma, urine, and fecal samples were collected from the 8 subjects for the metabolite profiling.
# (§3) All samples were shipped to QPS LLC (Newark, Del.) and stored at −70° C. HPLC/tandem MS coupled with a radio flow-through detector (RFD) was used for metabolite profiling and identification for samples with sufficient levels of radioactivity.
# (§4) HPLC fraction collection followed by counting with TopCount NXT™ was used for radioquantitation of plasma samples with sufficient levels of radioactivity. […] HPLC Method 1 was used for the analysis of pooled urine and fecal samples and individual plasma samples from different time points. […] HPLC Method 3 was used for pooled plasma samples.
# For the investigation of co-eluting metabolites, nonradiolabeled plasma samples of six subjects were pooled, processed, and analyzed for pre-dose, 1-7, 8-96, and 120-336 hours post-dose. […] [^14C]
# Radiolabeled and non-radiolabeled plasma samples were extracted employing the same method, using 1.0-2 mL plasma samples, depending on the volume available and radioactivity level of the samples. The supernatants were evaporated to dryness under a stream of nitrogen in an ambient water bath, and the residues were reconstituted in 0.35-0.5 mL of MeOH:ACN:water (10:20:70, v/v/v). The reconstituted samples were centrifuged at 15,000 rpm for 10 minutes. Aliquots of the supernatants were injected onto the HPLC system for analysis.
# (§5) The system for metabolite profiling and identification (HPLC/MS/RFD) consisted of a HTC PAL autosampler, a Surveyor HPLC pump, a LTQ linear ion trap mass spectrometer, and a β-RAM Model 3 RFD. The data obtained by mass spectrometry and RFD were processed by Xcalibur and Laura Lite 3 software, respectively. The HPLC eluent was split between the RFD and mass spectrometer with a ratio of 3 to 1. The following are the summary of the conditions for HPLC, mass spectrometer, and RFD.
# Mass spectra (MS, MS/MS, and MS/MS/MS) of cabozantinib and its metabolite standards, provided by the Exelixis, Inc., were acquired on an ion trap mass spectrometer. Major fragment patterns were proposed. Identification of these metabolites was confirmed by matching mass spectra (MS and MS/MS) and retention times with authentic reference standards. For other unknown metabolites, molecular ions were searched on LC/MS chromatograms operating in full scan positive as well as negative ionization modes at the same retention times as those found on LC-radio chromatogram. […]
# For plasma samples, percent of total radioactivity in the sample for each peak at each time point was calculated and converted to ng/mL.
# [2] = Metabolite profiling of human urine after [14C] cabozantinib (mass balance study); format: in vivo; conditions: single 175 mg oral dose; for presence in pooled urine sample: human urine
# Protocol: as §1, §2, §3, §4
# The radioactivity in pooled urine and reconstituted solution was counted using LSC, and the reconstitution recovery calculated. […] Each pooled urine sample was lyophilized, the residue was reconstituted in water:ACN:FA (80:20:0.1, v/v/v), and the reconstituted sample was centrifuged at 15,000 rpm for 10 min before analysis.
# as §5
# (§6) Mass spectra (MS, MS/MS, and MS/MS/MS) of cabozantinib and its metabolite standards, provided by the Exelixis, Inc., were acquired on an ion trap mass spectrometer. Major fragment patterns were proposed. Identification of these metabolites was confirmed by matching mass spectra (MS and MS/MS) and retention times with authentic reference standards. For other unknown metabolites, molecular ions were searched on LC/MS chromatograms operating in full scan positive as well as negative ionization modes at the same retention times as those found on LC-radio chromatogram. Product ion mass spectra and high resolution mass spectra were then acquired for the corresponding molecular ions. Putative metabolite structures were proposed based on the analysis of their mass fragment patterns.
# For the pooled urine samples, percent of total radioactivity in the pooled sample for each peak was calculated as the % of total non-parent in the pooled samples: % of total non-parent in the pooled samples=(total radioactivity of the peak/total radioactivity of the non-parent peaks)×100
# Flt-4 = Flt-4 (Homo sapiens (Human), UniProt P35916); test: Kinase activity, EMD Millipore Kinase Profiler; format: biochemical; conditions: for inhibition at 1 µM: read-out: Flt-4 percent inhibition
# [3] = Metabolite profiling of human feces after [14C] cabozantinib (mass balance study); format: in vivo; conditions: single 175 mg oral dose
# Protocol: as §1, §2, §3, §4
# The supernatants were dried under a nitrogen stream, and the residues were reconstituted in water:ACN:FA (80:20:0.1, v/v/v). The reconstituted samples were centrifuged at 15,000 rpm for 10 min before analysis.
# as §5, §6
# For the pooled fecal samples, percent of total radioactivity in the pooled sample for each peak was calculated as the percent of total non-parent plus parent in the pooled samples: % of total non-parent plus parent in the pooled samples=(total radioactivity of the peak/total radioactivity of the parent and non-parent peaks)×100
# RET = RET (Homo sapiens (Human), UniProt P07949); test: Kinase activity, EMD Millipore Kinase Profiler; format: biochemical; conditions: read-out: RET percent inhibition
# Flt-1 Alpha = Flt-1 Alpha (Homo sapiens (Human), UniProt P17948); test: Kinase activity, EMD Millipore Kinase Profiler; conditions: for inhibition at 1 µM: read-out: Flt-1 Alpha percent inhibition
# Aurora B MP = Aurora B MP (Homo sapiens (Human), UniProt Q96GD4); test: Kinase activity, EMD Millipore Kinase Profiler; format: biochemical; conditions: for inhibition at 1 µM: read-out: Aurora B MP percent inhibition; for IC50: read-out: Aurora B MP 8pt Std (IC50)
# Flt-3 = Flt-3 (Homo sapiens (Human), UniProt P36888); test: Kinase activity, EMD Millipore Kinase Profiler; format: biochemical; conditions: for inhibition at 1 µM: read-out: Flt-3 percent inhibition; for IC50: read-out: Flt-3 Std (IC50)
# c-Met = c-Met (Homo sapiens (Human), UniProt P08581); test: Kinase activity, EMD Millipore Kinase Profiler; format: biochemical; conditions: for inhibition at 1 µM: read-out: c-Met percent inhibition; for IC50: read-out: c-Met Std (IC50)
# KDR = KDR (Homo sapiens (Human), UniProt P35968); test: Kinase activity, EMD Millipore Kinase Profiler; format: biochemical; conditions: for inhibition at 1 µM: read-out: KDR percent inhibition; for IC50: read-out: KDR Std (IC50)
# KDR, sequence (P35968 20-1356): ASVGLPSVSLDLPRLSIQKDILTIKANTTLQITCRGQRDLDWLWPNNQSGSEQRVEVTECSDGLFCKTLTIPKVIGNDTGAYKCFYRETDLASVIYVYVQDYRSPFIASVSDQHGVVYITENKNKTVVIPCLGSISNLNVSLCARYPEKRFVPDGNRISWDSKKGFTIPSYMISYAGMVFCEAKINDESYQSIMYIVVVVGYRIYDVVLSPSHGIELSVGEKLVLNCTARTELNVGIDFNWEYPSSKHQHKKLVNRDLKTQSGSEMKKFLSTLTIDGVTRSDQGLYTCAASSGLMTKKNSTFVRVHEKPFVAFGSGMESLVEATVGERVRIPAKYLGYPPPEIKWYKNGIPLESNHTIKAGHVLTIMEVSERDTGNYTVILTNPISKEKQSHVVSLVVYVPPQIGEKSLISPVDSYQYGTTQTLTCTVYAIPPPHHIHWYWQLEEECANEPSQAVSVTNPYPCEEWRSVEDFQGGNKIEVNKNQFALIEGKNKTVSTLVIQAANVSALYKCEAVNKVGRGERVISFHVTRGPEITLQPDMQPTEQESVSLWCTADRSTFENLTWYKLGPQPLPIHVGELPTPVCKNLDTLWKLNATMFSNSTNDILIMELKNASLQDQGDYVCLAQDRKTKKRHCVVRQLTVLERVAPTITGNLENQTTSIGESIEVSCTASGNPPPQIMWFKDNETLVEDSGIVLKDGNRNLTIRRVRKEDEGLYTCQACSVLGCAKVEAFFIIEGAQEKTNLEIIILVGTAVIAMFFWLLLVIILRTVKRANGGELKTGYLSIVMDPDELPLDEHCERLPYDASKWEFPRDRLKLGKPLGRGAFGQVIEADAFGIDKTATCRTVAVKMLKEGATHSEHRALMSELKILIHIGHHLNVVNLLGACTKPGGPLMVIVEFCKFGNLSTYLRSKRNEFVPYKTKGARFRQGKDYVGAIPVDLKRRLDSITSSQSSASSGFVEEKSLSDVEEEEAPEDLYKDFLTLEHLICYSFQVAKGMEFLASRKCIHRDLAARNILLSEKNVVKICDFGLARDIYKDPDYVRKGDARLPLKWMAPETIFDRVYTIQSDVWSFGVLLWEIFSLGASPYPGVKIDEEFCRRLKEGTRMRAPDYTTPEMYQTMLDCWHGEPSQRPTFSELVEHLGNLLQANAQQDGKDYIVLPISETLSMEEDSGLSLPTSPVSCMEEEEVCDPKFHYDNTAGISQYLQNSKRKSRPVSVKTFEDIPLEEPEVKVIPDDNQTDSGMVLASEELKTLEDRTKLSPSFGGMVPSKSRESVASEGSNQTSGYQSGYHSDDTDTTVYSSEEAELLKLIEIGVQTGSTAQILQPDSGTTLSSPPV
# c-Met, sequence (P08581 25-1390): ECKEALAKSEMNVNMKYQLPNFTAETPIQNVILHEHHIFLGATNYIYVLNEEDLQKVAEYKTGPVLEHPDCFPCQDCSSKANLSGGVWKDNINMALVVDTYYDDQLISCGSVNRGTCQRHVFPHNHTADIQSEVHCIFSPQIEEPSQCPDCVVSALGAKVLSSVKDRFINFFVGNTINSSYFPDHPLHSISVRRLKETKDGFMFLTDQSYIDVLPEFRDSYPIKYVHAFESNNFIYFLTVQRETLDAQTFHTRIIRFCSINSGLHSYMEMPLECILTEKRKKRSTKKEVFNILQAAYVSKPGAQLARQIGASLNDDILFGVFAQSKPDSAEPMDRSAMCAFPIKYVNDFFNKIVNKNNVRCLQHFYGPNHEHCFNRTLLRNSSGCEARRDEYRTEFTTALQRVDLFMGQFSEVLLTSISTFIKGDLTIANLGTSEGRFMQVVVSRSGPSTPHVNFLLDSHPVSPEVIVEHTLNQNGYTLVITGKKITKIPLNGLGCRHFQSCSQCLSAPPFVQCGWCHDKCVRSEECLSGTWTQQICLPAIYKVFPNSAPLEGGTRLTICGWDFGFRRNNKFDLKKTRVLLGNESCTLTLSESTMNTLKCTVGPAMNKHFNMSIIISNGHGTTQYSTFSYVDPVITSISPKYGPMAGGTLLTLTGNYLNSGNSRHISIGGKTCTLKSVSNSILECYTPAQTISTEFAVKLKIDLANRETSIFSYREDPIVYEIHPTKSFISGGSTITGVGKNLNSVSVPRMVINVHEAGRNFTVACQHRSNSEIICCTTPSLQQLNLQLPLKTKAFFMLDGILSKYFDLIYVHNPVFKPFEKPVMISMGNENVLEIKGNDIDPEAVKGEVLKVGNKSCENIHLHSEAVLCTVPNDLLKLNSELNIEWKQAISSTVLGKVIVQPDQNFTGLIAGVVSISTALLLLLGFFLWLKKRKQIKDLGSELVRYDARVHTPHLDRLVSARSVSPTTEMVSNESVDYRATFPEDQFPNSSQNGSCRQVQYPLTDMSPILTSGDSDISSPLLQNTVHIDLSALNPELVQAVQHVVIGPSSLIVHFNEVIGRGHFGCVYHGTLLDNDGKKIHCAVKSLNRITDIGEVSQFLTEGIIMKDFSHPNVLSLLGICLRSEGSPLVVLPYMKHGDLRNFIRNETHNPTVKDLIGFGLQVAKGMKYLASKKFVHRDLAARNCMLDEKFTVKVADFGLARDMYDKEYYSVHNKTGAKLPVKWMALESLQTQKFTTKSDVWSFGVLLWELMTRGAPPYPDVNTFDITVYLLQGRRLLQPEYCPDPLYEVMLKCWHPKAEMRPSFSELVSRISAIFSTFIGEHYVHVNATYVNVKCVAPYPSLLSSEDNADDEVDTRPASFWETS
# Flt-4, sequence (P35916 25-1363): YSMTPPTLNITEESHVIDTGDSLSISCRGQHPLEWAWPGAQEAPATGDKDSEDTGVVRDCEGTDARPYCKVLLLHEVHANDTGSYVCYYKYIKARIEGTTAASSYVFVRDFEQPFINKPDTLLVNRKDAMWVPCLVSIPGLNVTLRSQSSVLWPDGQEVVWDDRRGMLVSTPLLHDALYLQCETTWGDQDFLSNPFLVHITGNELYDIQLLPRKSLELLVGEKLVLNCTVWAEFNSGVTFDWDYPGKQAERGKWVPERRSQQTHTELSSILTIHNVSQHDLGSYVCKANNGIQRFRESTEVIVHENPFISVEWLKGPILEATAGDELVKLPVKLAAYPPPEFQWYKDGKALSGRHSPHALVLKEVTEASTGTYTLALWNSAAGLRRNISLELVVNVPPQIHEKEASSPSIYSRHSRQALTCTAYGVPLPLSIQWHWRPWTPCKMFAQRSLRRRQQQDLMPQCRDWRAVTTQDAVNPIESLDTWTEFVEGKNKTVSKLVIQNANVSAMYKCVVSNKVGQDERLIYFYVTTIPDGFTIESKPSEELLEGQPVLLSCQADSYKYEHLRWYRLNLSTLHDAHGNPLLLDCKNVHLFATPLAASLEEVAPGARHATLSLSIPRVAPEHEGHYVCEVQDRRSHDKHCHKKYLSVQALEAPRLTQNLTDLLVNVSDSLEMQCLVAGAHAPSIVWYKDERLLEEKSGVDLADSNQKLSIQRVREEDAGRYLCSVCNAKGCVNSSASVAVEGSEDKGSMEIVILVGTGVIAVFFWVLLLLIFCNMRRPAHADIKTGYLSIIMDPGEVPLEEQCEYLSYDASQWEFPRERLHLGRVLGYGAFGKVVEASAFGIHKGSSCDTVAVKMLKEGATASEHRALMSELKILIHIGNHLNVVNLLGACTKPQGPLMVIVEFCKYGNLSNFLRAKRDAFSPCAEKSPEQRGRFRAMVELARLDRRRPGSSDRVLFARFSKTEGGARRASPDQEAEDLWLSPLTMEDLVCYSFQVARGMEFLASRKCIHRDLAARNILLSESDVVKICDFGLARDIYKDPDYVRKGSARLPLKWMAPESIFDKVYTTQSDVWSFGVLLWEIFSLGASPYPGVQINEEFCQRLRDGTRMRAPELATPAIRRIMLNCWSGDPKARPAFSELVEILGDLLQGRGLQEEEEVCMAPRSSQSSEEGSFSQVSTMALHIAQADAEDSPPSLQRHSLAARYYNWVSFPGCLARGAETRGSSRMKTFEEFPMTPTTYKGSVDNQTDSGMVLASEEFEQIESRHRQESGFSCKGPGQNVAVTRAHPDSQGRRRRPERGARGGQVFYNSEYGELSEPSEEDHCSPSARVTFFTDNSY
# Aurora B MP, sequence (Q96GD4 whole entry): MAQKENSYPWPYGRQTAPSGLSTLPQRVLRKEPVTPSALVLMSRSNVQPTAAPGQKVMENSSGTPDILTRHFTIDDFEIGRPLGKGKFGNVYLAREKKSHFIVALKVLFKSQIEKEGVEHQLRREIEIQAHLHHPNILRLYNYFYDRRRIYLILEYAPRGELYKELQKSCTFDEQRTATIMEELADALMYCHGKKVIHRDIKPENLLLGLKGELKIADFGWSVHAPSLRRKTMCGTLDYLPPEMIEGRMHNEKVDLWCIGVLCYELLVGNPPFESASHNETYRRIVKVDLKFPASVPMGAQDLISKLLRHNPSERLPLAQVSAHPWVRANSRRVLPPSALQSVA
structure (smiles),measurement,setting,value
"COc1cc2nccc(Oc3ccc(NC(=O)C4(C(=O)Nc5ccc(F)cc5)CC4)cc3)c2cc1OC [Cabozantinib, N-(4-{[6,7-bis(methyloxy)quinolin-4-yl]oxy}phenyl)-N′-(4-fluorophenyl)cyclopropane-1,1-dicarboxamide, reference compound]",peak on plasma radio-chromatograms,[1],major peaks
same,presence in urine samples,"[2]; human urine samples, all intervals",not observed
same,IC50,Flt-4; read-out: Flt-4 Std (IC50),< 50 nM
same,presence in pooled fecal sample,[3]; 0-72 hours post dose,observed
COc1cc2nccc(Oc3ccc(NC(=O)C4(C(=O)O)CC4)cc3)c2cc1OS(=O)(=O)O [Compound 2a],inhibition at 1 µM,RET,≤ 25%
same,inhibition at 1 µM,Flt-1 Alpha,≤ 25%
same,inhibition at 1 µM,Aurora B MP,≤ 25%
same,inhibition at 1 µM,Flt-4,≥ 25%
same,inhibition at 1 µM,Flt-3,≤ 25%
same,inhibition at 1 µM,c-Met,≥ 50%
same,inhibition at 1 µM,KDR,≤ 25%
"COc1cc2nccc(Oc3ccc(NC(=O)C4(C(=O)O)CC4)cc3)c2cc1OC [Compound 7, 1-[4-(6,7-Dimethoxy-quinolin-4-yloxy)-phenylcarbamoyl]-cyclopropane carboxylic acid]",peak on plasma radio-chromatograms,[1],one of the minor peaks
same,IC50,Aurora B MP,500 to 5000 nM
same,presence in pooled urine sample,[2]; 0-72 hours post dose,observed
same,presence in pooled urine sample,[2]; 144-192 hours post dose,observed
same,IC50,Flt-3,500 to 5000 nM
same,presence in pooled fecal sample,[3]; 0-72 hours post dose,observed
same,presence in pooled fecal sample,[3]; 144-192 hours post dose,observed
same,IC50,c-Met,> 5000 nM
same,IC50,KDR,> 5000 nM
COc1cc2nccc(Oc3ccc(NC(=O)C4(C(=O)Nc5ccc(F)cc5OS(=O)(=O)O)CC4)cc3)c2cc1OC [Compound 9],inhibition at 1 µM,RET,≥ 75%
same,inhibition at 1 µM,Flt-1 Alpha,≥ 50%
same,peak on plasma radio-chromatograms,[1],major peaks
same,inhibition at 1 µM,Aurora B MP,≥ 75%
same,inhibition at 1 µM,Flt-4,≥ 75%
same,inhibition at 1 µM,Flt-3,≥ 50%
same,inhibition at 1 µM,c-Met,≥ 75%
same,inhibition at 1 µM,KDR,≤ 25%
COc1cc2nccc(Oc3ccc(NC(=O)C4(C(=O)Nc5ccc(F)c(O)c5)CC4)cc3)c2cc1OC [Compound 13],IC50,Flt-1 Alpha,500 to 5000 nM
same,IC50,Aurora B MP,50 to 500 nM
same,IC50,Flt-3,< 50 nM
same,IC50,c-Met,< 50 nM
same,IC50,KDR,< 50 nM
COc1cc2nccc(Oc3ccc(NC(=O)C4(C(=O)Nc5ccc(F)cc5O)CC4)cc3)c2cc1OC [Compound 16],IC50,Flt-1 Alpha,500 to 5000 nM
same,IC50,Aurora B MP,50 to 500 nM
same,IC50,Flt-3,< 50 nM
same,presence in pooled fecal sample,[3]; 0-72 hours post dose,observed
same,presence in pooled fecal sample,[3]; 144-192 hours post dose,observed
same,IC50,c-Met,< 50 nM
same,IC50,KDR,< 50 nM
COc1cc2c(Oc3ccc(NC(=O)C4(C(=O)Nc5ccc(F)cc5)CC4)cc3)cc[n+]([O-])c2cc1OC [Compound 19],peak on plasma radio-chromatograms,[1],major peaks
same,presence in pooled urine sample,[2]; 0-72 hours post dose,observed
